Assay results as given in PMC7059793, “Novel Chemical Scaffolds to Inhibit the Neutral Amino Acid Transporter B^0AT1 (SLC6A19), a Potential Target to Treat Metabolic Diseases” (Frontiers in Pharmacology, 2020).

Experiments:
Type in all cases: cell-based
B^0AT1 [1] = molecular target: T1, B^0AT1 (Homo sapiens, UniProt Q695T7); test: Radioactive flux assay (radiolabelled leucine/isoleucine uptake) in CHO-BC cells; conditions: 150 μM [14C]leucine or [14C]isoleucine, 6 min, 37°C
T1 construct: expressed in transfected cells
T1 sequence (Q695T7 1-634): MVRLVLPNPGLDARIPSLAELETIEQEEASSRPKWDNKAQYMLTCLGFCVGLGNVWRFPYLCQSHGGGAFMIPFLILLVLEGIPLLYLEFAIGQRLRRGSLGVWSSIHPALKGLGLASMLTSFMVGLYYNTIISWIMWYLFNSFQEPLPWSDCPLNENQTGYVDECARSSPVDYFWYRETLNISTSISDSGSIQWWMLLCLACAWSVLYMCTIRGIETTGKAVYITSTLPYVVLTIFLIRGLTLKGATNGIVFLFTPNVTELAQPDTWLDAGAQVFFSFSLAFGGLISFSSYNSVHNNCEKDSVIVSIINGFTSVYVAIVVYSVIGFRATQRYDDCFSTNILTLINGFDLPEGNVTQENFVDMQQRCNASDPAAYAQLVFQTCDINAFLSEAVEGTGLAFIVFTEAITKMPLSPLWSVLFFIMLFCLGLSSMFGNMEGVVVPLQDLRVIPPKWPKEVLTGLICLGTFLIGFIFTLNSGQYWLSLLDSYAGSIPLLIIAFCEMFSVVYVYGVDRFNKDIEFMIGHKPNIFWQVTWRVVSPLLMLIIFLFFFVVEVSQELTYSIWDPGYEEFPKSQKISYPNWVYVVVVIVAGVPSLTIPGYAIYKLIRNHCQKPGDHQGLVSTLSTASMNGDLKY
T1 sequence (Q9HBJ8 15-222 partner): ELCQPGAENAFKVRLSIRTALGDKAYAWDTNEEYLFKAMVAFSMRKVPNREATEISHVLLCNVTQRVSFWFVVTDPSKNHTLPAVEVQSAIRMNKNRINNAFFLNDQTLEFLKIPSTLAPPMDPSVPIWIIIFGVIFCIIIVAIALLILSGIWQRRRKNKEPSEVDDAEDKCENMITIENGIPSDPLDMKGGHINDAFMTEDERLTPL
Protocol: (§1) CHO-BC cells with passage numbers from 3 to 10 were used in radio-labelled uptake assays. Before the assay, the cells were seeded out in 35 mm dishes (Corning) and maintained for 48–72 h until reaching 80–90% confluence. To initiate transport, the culture medium was removed and the cells washed three times with HBSS + G. Subsequently, cells were incubated with HBSS + G, radiolabelled substrates (150 μM L-[U-^14C]leucine or 150 μM L-[U-^14C]isoleucine) and inhibitors as indicated in the figures or table in a 37°C water bath for 6 min. To terminate transport, cells were washed three times with ice-cold HBSS pH 7.5. For measuring sodium-independent uptake, NaCl in Hank’s buffer was replaced by NMDG-Cl. Cells were then harvested by homogenizing with 500 µl of 0.1 M HCl. An aliquot of 400 µl was used for scintillation counting and the remainder for protein quantification. To investigate inhibition of ASCT2, uptake of 100 μM [^14C]glutamine was measured in 143B cells in the absence and presence of inhibitor (at 10 μM and 50 μM). To measure inhibition of LAT1, uptake of [^14C]leucine was measured in HBSS + G in which NaCl was replaced by NMDG-Cl in 143B cells in the absence and presence of inhibitor (at 10 μM and 50 μM).
Data are shown as mean ± S.D., transport activities indicated as Na^+-dependent net uptake, were calculated by subtracting the uptake activity in the absence of Na^+ from the total uptake rate. The fluorescent signals measured in the FLIPR assay were normalized to baseline readings before the addition of substrates. Data are presented as percentage of baseline at each time point. IC50 was calculated using the equation: y=ymax(1−[x]/[x]+IC50) .

B^0AT1 [2] = molecular target: T1, B^0AT1; test: Mode of inhibition: leucine uptake kinetics at three inhibitor concentrations, FLIPR, Eadie-Hofstee; conditions: CHO-BC cells
Text: To understand the mode of inhibition, we determined KM-values at three different inhibitor concentrations using FLIPR assay and plotted Eadie-Hofstee transformed data ( Figure 5 ). Fully parallel lines indicate a change of […], while fully converging lines (at x = 0; y = Vmax) indicate a change of KM only with increasing concentrations of the inhibitor. […] To rationalize the mode of inhibition, we performed docking studies using a homology model of B^0AT1 based on the outside-open conformation of LeuT. […] In the homology structure the two Na^+ are shown as yellow spheres. Both, LeuT Na^+-site 1 and -site 2 are conserved in B^0AT1, but only one site is used functionally. This is most likely site 1 as it binds the α-carboxyl-group of the amino acids ([O’mara et al., 2006]). […] Many transport inhibitors are substrate analogues that are too large to fit into the occluded substrate binding cavity, thereby blocking the conformational change required for transport ([Broer, 2018]). […] Instead the compounds preferred binding to different sites in the vestibule, including the proposed Substrate-binding site 2 ([Shi et al., 2008]), which was the preferred docking site for compound E4. In the outside open conformation, the volume of the binding site increases, encompassing an orthostatic binding site ( Figure 5H , orange), occupied by E4, E18, or the substrate and an allosteric binding site ( Figure 5H , blue), which is compatible with substrate binding.
Figure 5 Mechanistic aspects of B^0AT1 inhibitors. Inhibition of B^0AT1 by compounds E4 (A), E18 (B) and CB3 (C) (n = 3, e = 3) was determined by FLIPR assay in CHO-BC cells. To determine the mode of inhibition, the kinetic properties of leucine uptake were determined in the presence of three different inhibitor concentrations. Docking poses of compounds E4 (D), E18 (E) and CB3 (F) are shown for comparison. Amino acid side-chains of the binding pocket are shown in green, cosubstrate Na^+ 1 is shown in yellow (foreground), Na^+ 2 is only partially visible in the background and may not exist in B^0AT1. […]

LAT1 = molecular target: T2, LAT1 (Homo sapiens, UniProt Q01650); test: Na+-independent [14C]leucine uptake in 143B cells; conditions: inhibitor at 10 μM and 50 μM
T2 construct: endogenous in cells; host or cells: 143B TK- cells (human osteosarcoma)
Protocol: as §1
To investigate the specificity of the compounds further, we tested them in human 143B osteosarcoma cells, which we have extensively characterised previously and used for pharmacological analysis ([Broer et al., 2018]). Na^+-dependent glutamine transport in 143B cells is largely mediated by ASCT2 (SLC1A5). Na^+-independent transport of leucine, by contrast, is mediated entirely by LAT1.

T2 sequence (Q01650 whole entry): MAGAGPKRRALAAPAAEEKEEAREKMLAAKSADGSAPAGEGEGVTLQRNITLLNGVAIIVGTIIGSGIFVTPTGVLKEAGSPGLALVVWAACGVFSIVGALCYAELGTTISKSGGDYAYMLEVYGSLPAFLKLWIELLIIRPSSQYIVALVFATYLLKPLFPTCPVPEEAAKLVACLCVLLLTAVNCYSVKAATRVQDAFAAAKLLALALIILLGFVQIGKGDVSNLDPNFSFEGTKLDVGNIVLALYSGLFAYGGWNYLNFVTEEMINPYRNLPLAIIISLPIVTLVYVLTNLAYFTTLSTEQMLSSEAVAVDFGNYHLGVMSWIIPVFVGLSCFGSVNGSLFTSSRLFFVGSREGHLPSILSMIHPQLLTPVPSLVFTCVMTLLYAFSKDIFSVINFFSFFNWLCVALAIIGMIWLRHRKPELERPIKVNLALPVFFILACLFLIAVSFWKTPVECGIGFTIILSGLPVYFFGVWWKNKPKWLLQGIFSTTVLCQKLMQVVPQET
T2 sequence (P08195 102-630 partner): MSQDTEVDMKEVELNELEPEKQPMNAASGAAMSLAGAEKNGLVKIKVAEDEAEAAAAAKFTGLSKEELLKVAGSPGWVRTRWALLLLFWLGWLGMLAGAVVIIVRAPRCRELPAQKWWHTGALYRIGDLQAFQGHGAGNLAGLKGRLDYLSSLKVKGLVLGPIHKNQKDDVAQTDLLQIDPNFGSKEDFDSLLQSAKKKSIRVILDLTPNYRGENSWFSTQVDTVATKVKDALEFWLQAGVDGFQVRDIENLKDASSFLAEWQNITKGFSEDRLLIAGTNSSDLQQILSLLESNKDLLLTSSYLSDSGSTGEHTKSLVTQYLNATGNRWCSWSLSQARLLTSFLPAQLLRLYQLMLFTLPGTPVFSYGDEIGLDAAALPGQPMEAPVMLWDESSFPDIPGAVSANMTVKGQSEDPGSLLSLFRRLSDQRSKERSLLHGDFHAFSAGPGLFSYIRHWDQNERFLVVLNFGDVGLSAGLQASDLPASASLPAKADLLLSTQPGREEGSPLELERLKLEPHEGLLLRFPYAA

IC50 (B^0AT1 [1]) [µM]	Mode of inhibition (B^0AT1 [2])	Inhibition of Na+-independent leucine uptake (LAT1) (LAT1)	Compound
3.4 ± 0.3	largely competitive mode of inhibition	failed to inhibit	COc1ccccc1Nc1nc2ccccc2s1 [Compound E18]
4.9 ± 0.4	more mixed model	failed to inhibit	Cc1cc(C(=O)Nc2ccc(Cl)cc2C(F)(F)F)no1 [CB3]
7.7 ± 1.9	largely competitive mode of inhibition	failed to inhibit	Cc1cc(OCC(=O)NC(C)C)cc(C)c1Cl [Compound E4]
